Data published in publication PMC11111404, “Discovery of potent small-molecule inhibitors of lipoprotein(a) formation” (Nature, 2024).
“And” between values parts separate entries of the source, which are not always exact repeats. Equal entries are not always repeated. Where two headings read alike, the source gives them in different places. Marks after values point to notes of the source that are not given here.

How the values were obtained:
Lp(a) = Lp(a) levels in cynomolgus monkeys; type: in vivo, cynomolgus monkey (Macaca fascicularis); set-up: key to Mean_pCFB_vs_Veh / Mean_pCFB_vs_Veh (Lp(a)): % change from pre-dose, treated group compared with vehicle; key to Mean_pCFB / Mean_pCFB (Lp(a)): % change in Lp(a) from before dosing; Lp(a): unit not given here; conditions: for Mean_pCFB / Mean_pCFB_vs_Veh: Lp(a); for Mean_pCFB / Mean_pCFB_vs_Veh / Lp(a) / pCFB (Lp(a) pct change from baseline): female cynomolgus monkeys
Method: Female or male Chinese Macaca fascicularis cynomolgus monkeys (as described in the figure legends) of unspecified ages with body weight ranging from 2.0 kg to 5.0 kg were housed in cages with a standard light cycle (12-h light, 12-h dark) at room temperature (20–26 °C); the relative humidity ranged from 30% to 70%. Monkeys were given fruits, vegetables or dietary enrichment as a form of environmental enrichment, and various cage enrichment devices. Purina Lab diet 5048C was provided BID and individual monkeys were identified by cage card. The monkeys were randomized to treatment groups by body weight and baseline plasma Lp(a) concentration, as determined by a commercially available Randox assay (Randox LP2757), using a BRAT for the study. In an example cynomolgus monkey study in which 39 monkeys were prescreened for baseline Lp(a) levels, the average Lp(a) level was 350 ± 57 µg ml^−1 (range 53–1,667 µg ml^−1). Monkeys were dosed orally with vehicle (purified water) or compounds QD or BID for 14 days, at dose levels and frequencies as previously described for each compound. Plasma samples were collected on days before dosing to establish baseline Lp(a) and after the morning dose during the study. Lp(a) levels were measured by an investigator who was blinded to group allocation using the Randox assay, and were quantified relative to the calibrator series (Randox LP3404). Data were analysed in GraphPad Prism v.9.5.1. The Lp(a) percentage change from before dosing in non-human primates was analysed by repeated measures ANOVA in SAS v.9.4 (SAS). At each time point, the Lp(a) percentage change for each treated group was compared with vehicle by the Bonferroni method.

[1] = Drug concentration in mouse blood after oral dosing; type: in vivo; conditions: female, whole blood (dried blood spots), day 5, read-out: Drug concentration, 4-h time point
Method: The LPA gene (GenBank accession code NM_005577) encoding the human apo(a) protein with a signal peptide, one KIV type 1, six KIV type 2 repeats, one each of KIV types 3–10, one KV and one protease domain was subcloned into a transgenic vector containing a mouse albumin promoter cassette and a human growth hormone polyadenylation signal. The transgenic mouse line was generated by pronucleus injection of the LPA transgenic vector. Eight individual transgenic founder mice were assessed for germline transmission of LPA by genotyping and assessment of the levels of apo(a) in the plasma. Positive founder mice were crossed with ApoB100 transgenic mice (Taconic model 1004), and the resulting mouse line nomenclature (B6.SJL-Tg(APOB)1102Sgy Tg(Alb-LPA)32Arte) was selected on the basis of the confirmation of germline transmission, the identification of LPA and huApoB100 transgenes and the levels of Lp(a) in the plasma. Mice hemizygous for both transgenes were used for pharmacology studies. The studies were conducted in female Lp(a) double transgenic mice (age around 7–17 months). Mice were housed in cages with a standard light cycle (12-h light, 12-h dark), at room temperature (22 ± 4 °C), with a relative humidity of 30–70%. Mice were identified by numbers on the cage cards. After arrival, mice were fed on a normal diet (Harlan Teklad diet 2014). Mice were randomized to treatment groups (n = 5 per group, unless otherwise noted) by body weight and baseline plasma Lp(a) concentration using a block randomized allocation tool (BRAT) for the study. In an example Lp(a) transgenic mouse study in which 66 mice were prescreened for baseline Lp(a) levels, the average Lp(a) level was 45 ± 1.8 µg ml^−1 (range 20–78 µg ml^−1). Mice were dosed with various compounds in vehicle (10 ml kg^−1, 1% hydroxyethyl cellulose (HEC), 0.25% Tween-80, Antifoam) or with vehicle alone as a control orally BID for five days. Blood samples were collected by tail bleeds at designated times, and Lp(a) levels were determined by ELISA by an investigator who was blinded to group allocation. In brief, lipoprotein particles were captured by a goat anti-Lp(a)-antibody-coated plate (Abcam ab31675, diluted 1:12,500 in HEPES-buffered saline), the plates were washed and samples were detected using an HRP-conjugated goat anti-apoB antibody (Abcam ab27622, diluted 1:3,000). Colorimetric peroxidase substrate 3,3’,5,5’-TMB was added, and the reaction was stopped using 1 N sulfuric acid. Absorbance at 450 nm was read on a Molecular Devices SpectraMax plate reader. Blood samples were collected at four hours after dosing on day 5 of dosing to confirm exposure. Full pharmacokinetic (PK) profiles were not evaluated. Concentrations of compounds were evaluated from dried blood spots through a non-Good Laboratory Practice (GLP) liquid chromatography with tandem mass spectrometry (LC–MS/MS) assay. Data were analysed in GraphPad Prism v.9.5.1

[2] = oral BID, day 1, individual animal
[3] = oral BID, day 3, individual animal
[4] = oral BID, day 5, individual animal
[5] = oral BID, day 9, individual animal
[6] = oral BID, day 14, individual animal
[7] = oral QD, day 1, individual animal
[8] = oral QD, day 3, individual animal
[9] = oral QD, day 5, individual animal
[10] = oral QD, day 9, individual animal
[11] = oral QD, day 14, individual animal

**Q.** With `Cl.O=C(O)[C@@H](Cc1ccccc1)[C@H]1CCNC1` [LSN3353871] as the molecule, how does the Mean_pCFB (Lp(a); BID, day 1) read?
**A.** -17.16

**Q.** What about the Mean_pCFB_vs_Veh (Lp(a); BID, day 1) of the same molecule?
**A.** 1.08

**Q.** And the Mean_pCFB (Lp(a); BID, day 3)?
**A.** -35.64

**Q.** What about the Mean_pCFB_vs_Veh (Lp(a); BID, day 3) of the same molecule?
**A.** -13.27

**Q.** And the Mean_pCFB (Lp(a); BID, day 5)?
**A.** -39.65

**Q.** What about the Mean_pCFB_vs_Veh (Lp(a); BID, day 5) of the same molecule?
**A.** -25.29

**Q.** What about the Mean_pCFB (Lp(a); BID, day 9) of the same molecule?
**A.** -24.57

**Q.** And the Mean_pCFB_vs_Veh (Lp(a); BID, day 9)?
**A.** -29.9

**Q.** What about the Mean_pCFB (Lp(a); BID, day 14) of the same molecule?
**A.** -34.78

**Q.** And the Mean_pCFB_vs_Veh (Lp(a); BID, day 14)?
**A.** -34.93

**Q.** What about the Mean_pCFB (Lp(a); QD, day 1) of the same molecule?
**A.** -15.58

**Q.** And the Mean_pCFB_vs_Veh (Lp(a); QD, day 1)?
**A.** 2.65

**Q.** And the Mean_pCFB (Lp(a); QD, day 3)?
**A.** -24.41

**Q.** What about the Mean_pCFB_vs_Veh (Lp(a); QD, day 3) of the same molecule?
**A.** -2.03

**Q.** And the Mean_pCFB (Lp(a); QD, day 5)?
**A.** -27.62

**Q.** What about the Mean_pCFB_vs_Veh (Lp(a); QD, day 5) of the same molecule?
**A.** -13.26

**Q.** What about the Mean_pCFB (Lp(a); QD, day 9) of the same molecule?
**A.** -15.91

**Q.** What about the Mean_pCFB_vs_Veh (Lp(a); QD, day 9) of the same molecule?
**A.** -21.23

**Q.** What about the Mean_pCFB (Lp(a); QD, day 14) of the same molecule?
**A.** -9.51

**Q.** What about the Mean_pCFB_vs_Veh (Lp(a); QD, day 14) of the same molecule?
**A.** -9.65

**Q.** What about the “decrease in Lp(a) levels” value (Lp(a); cynomolgus monkeys, 20 mg kg^−1 BID for two weeks) of the same molecule?
**A.** up to 40%

**Q.** What about the “%Lp(a) max decrease (dose, mg/kg)” value (Lp(a); cynomolgus monkeys, 20 mg/kg BID, 14 days dosing) of the same molecule?
**A.** 40 (20)^b %

**Q.** And the “Lp(a)” value (Lp(a); BID group, day -1 (before dosing), individual animal)?
**A.** 62.7685 and 48.163 and 60.7172 and 13.635 and 18.9902 and 51.942 and 61.5505 and 31.6327

**Q.** And the “Lp(a)” value (Lp(a); BID group, day -14 (before dosing), individual animal)?
**A.** 63.283 and 50.674 and 55.2892 and 13.5483 and 15.2575 and 51.2555 and 54.086 and 23.9562

**Q.** And the “Lp(a)” value (Lp(a); QD group, day -1 (before dosing), individual animal)?
**A.** 64.272 and 49.5175 and 60.6415 and 25.2005

**Q.** And the “Lp(a)” value (Lp(a); QD group, day -14 (before dosing), individual animal)?
**A.** 61.406 and 37.9278 and 38.7218 and 35.5823

**Q.** And the “Lp(a)” value (Lp(a); [2])?
**A.** 52.535 and 44.0168 and 46.6457 and 12.9142 and 11.7935 and 42.9437 and 23.7942 and 44.7918

**Q.** And the “pCFB (Lp(a) pct change from baseline)” value (Lp(a); [2])?
**A.** -10.9306 and -19.5807 and -4.985 and -31.1282 and -18.9955 and -14.3923 and -20.5861 and -16.6452

**Q.** What about the “Lp(a)” value (Lp(a); [3]) of the same molecule?
**A.** 45.0043 and 39.4997 and 31.6748 and 8.965 and 6.9825 and 34.2685 and 20.4107 and 36.1685

**Q.** What about the “pCFB (Lp(a) pct change from baseline)” value (Lp(a); [3]) of the same molecule?
**A.** -20.0709 and -45.3913 and -34.0392 and -59.2235 and -35.3595 and -26.5656 and -35.8749 and -28.5937

**Q.** What about the “Lp(a)” value (Lp(a); [4]) of the same molecule?
**A.** 38.5745 and 31.448 and 28.6503 and 10.7198 and 9.08 and 32.1393 and 18.0332

**Q.** What about the “pCFB (Lp(a) pct change from baseline)” value (Lp(a); [4]) of the same molecule?
**A.** -38.7957 and -36.3639 and -50.6056 and -21.1294 and -46.9735 and -39.3758 and -35.1194 and -48.839

**Q.** What about the “Lp(a)” value (Lp(a); [5]) of the same molecule?
**A.** 44.675 and 39.068 and 37.0712 and 13.4855 and 14.776 and 41.9348 and 17.9605

**Q.** And the “pCFB (Lp(a) pct change from baseline)” value (Lp(a); [5])?
**A.** -29.1163 and -20.9446 and -36.0875 and -0.7811 and -13.7109 and -20.8987 and -35.3809 and -39.6451

**Q.** What about the “Lp(a)” value (Lp(a); [6]) of the same molecule?
**A.** 55.7647 and 33.5363 and 40.4025 and 9.657 and 7.2775 and 34.1767 and 13.5137

**Q.** What about the “pCFB (Lp(a) pct change from baseline)” value (Lp(a); [6]) of the same molecule?
**A.** -11.5208 and -32.1383 and -30.3443 and -28.9479 and -57.5008 and -35.5326 and -51.38 and -30.8982

**Q.** And the “Lp(a)” value (Lp(a); [7])?
**A.** 48.1358 and 37.1353 and 55.4155 and 18.3242

**Q.** And the “pCFB (Lp(a) pct change from baseline)” value (Lp(a); [7])?
**A.** 11.5412 and -39.7058 and -6.086 and -13.177 and -16.5026 and -22.2746 and -23.3982 and -15.0662

**Q.** And the “Lp(a)” value (Lp(a); [8])?
**A.** 39.5063 and 29.6812 and 40.6228 and 20.1472

**Q.** And the “pCFB (Lp(a) pct change from baseline)” value (Lp(a); [8])?
**A.** -18.2339 and -33.7073 and 11.9206 and -19.0783 and -28.1629 and -38.7431 and -37.1309 and -32.1149

**Q.** And the “Lp(a)” value (Lp(a); [9])?
**A.** 37.3218 and 25.577 and 40.148 and 26.2523

**Q.** What about the “pCFB (Lp(a) pct change from baseline)” value (Lp(a); [9]) of the same molecule?
**A.** -19.1894 and -13.6191 and -4.001 and -34.7759 and -8.718 and -58.5688 and -40.6072 and -41.5017

**Q.** And the “Lp(a)” value (Lp(a); [10])?
**A.** 56.5955 and 31.4135 and 43.3325 and 24.1392

**Q.** And the “pCFB (Lp(a) pct change from baseline)” value (Lp(a); [10])?
**A.** -12.7796 and -20.572 and 2.106 and -9.614 and -0.2146 and -48.0895 and -9.936 and -28.1528

**Q.** And the “Lp(a)” value (Lp(a); [11])?
**A.** 39.3452 and 48.5785 and 37.4098 and 37.2848

**Q.** And the “pCFB (Lp(a) pct change from baseline)” value (Lp(a); [11])?
**A.** -24.9526 and -29.9842 and 41.651 and -25.3919 and 24.0547 and -24.319 and -22.6937 and -14.4384

**Q.** What about the concentration at 4 h ([1]; oral 3 mg/kg) of the same molecule?
**A.** 13.6 µM

**Q.** What about the concentration at 4 h ([1]; oral 10 mg/kg) of the same molecule?
**A.** 21.6 µM

**Q.** And the concentration at 4 h ([1]; oral 30 mg/kg)?
**A.** 28 µM

**Q.** And the concentration at 4 h ([1]; oral 100 mg/kg)?
**A.** 38 µM
